Peptide text beside a SMILES is read from it. * marks the point of attachment. Cbz = O=C(OCc1ccccc1)*
How the values were obtained:
IMR90 cells [1] = assay: Secondary screening: senolytic activity, young vs senescent IMR90 cells, crystal violet; assay type: cell-based, human; conditions: young vs Ras-induced senescent IMR90 cells; 5 μM and 10 μM; 72 hours; criterion of positivity 1.14 or more
Procedure: In the secondary screening, the agent sensitivity of young IMR90 cells and senescent IMR90 cells was compared. The senescent IMR90 cells were prepared by inducing an oncogenic Ras mutation. The young cells and the senescent cells were each seeded in a 96-well plate, and two days later, the candidate drugs obtained from the primary screening were treated at two concentrations of 5 μM and 10 μM. Surviving cells after 72 hours were fixed with formalin and stained with crystal violet. After that, crystal violet in each well was extracted with 2% Triton X100 and quantified (FIG. 31-1 and FIG. 31-2). Young cells and senescent cells were each treated with a solvent (DMSO), and the resulting cells were used as a negative control, and the survival rate compared to the negative control was calculated by the following expression. Furthermore, the agent sensitivity of the young cells and the senescent cells was compared and evaluated as senolytic activity (young cell viability/senescent cell viability). The criterion of positivity was a senolytic activity of 1.14 or more.
Viability(%)=(Sample/negative subject)×100
Senolytic activity=young cell viability/senescent cell viability

PGAM-Chk1 kinase binding = conditions: cancer cells; Mikawa et al., 2020; cited from earlier work
IMR90 cells [2] = assay: Senolysis / cell death of young and Ras-induced senescent IMR90 cells; assay type: cell-based, human
From the text: Ras gene with oncogenic mutation was introduced into young cells (within 1 month of continuous culture) of IMR90 cells by retroviral infection to acquire senescent cells. […] The control received only DMSO treatment. Representative images of cells observed under a microscope are shown (FIG. 11).
An oncogenic mutated Ras gene was introduced into young cells (within 1 month of continuous culture) of IMR90 cells by retroviral infection to acquire stress-induced senescent cells. The young cells and the senescent cells were both treated with different concentrations of the RSK kinase inhibitor BI-D1870 for 96 hours to evaluate cell death.
An oncogenic mutated Ras gene was introduced into young cells (within 1 month of continuous culture) of IMR90 cells by retroviral infection to acquire stress-induced senescent cells. The young cells and the senescent cells of IMR90 were both transfected with an RSK1 siRNA (two types of siRNA #1 (SEQ ID NO: 7) or #2 (SEQ ID NO: 8) having different target sequences) or a control to knock down RSK1. Representative images of cells observed under a microscope are shown (upper diagram in FIG. 20).
An oncogenic Ras was introduced into young cells (within 1 month of continuous culture) of IMR90 cells to induce senescent cells (OIS). The young cells and the senescent cells of IMR90 were transfected with two HIF-2α-specific siRNAs (SEQ ID NO: 9 and SEQ ID NO: 10) having different target sequences to knock down HIF-2α.
An oncogenic Ras was introduced into young cells (within 1 month of continuous culture) of IMR90 cells to induce senescent cells (OIS). The young cells and the senescent cells of IMR90 were transfected with a BIM-specific siRNA to knock down BIM.
An oncogenic Ras was introduced into young cells (within 1 month of continuous culture) of IMR90 cells to induce senescent cells (OIS). In the young cells and the senescent cells of IMR90, HIF-2α alone or both HIF-2α and BIM were knocked down by using their respective specific siRNAs (SEQ ID NO: 9, SEQ ID NO: 10), and cell death was confirmed (FIG. 28).
The latter information consists of 12,655 ChIP datasets from 903 antigens (transcription factors and epigenetic regulators).

HIF-2α = HIF-2α protein (Western blot) and mRNA expression in IMR90 cells; assay type: cell-based, human
From the text: As a result, it was observed that the HIF-2α protein decreased in the nutlin 3b-treated group and the BI-D1870-treated group (upper diagram and lower diagram in FIG. 22).
An oncogenic Ras was introduced into young cells (within 1 month of continuous culture) of IMR90 cells to induce senescent cells (OIS). […] It is known that ubiquitination is induced by phosphorylation in the vicinity of a ubiquitination site (Hagai et al., 2012). The consensus sequences (K/R-K/R-x-x-S/T) for phosphorylation by Chk1 located at the N-terminus of HIF-2α were conserved, and these were named Motif1 (including Ser12 residues) and Motif2 (including Ser19 residues) (FIG. 40, SEQ ID NOs: 77 to 81).

human fibroblasts = assay: Lactate treatment of human fibroblasts; assay type: cell-based
Procedure: In order to explore the physiological significance of enhanced glycolysis in senescence, a conditioned medium consisting of senescent cells and non-senescent cells was prepared and added to human fibroblasts at the early passage. PGAM-Chk1 interaction was potentiated by culture supernatant from the senescent cells, but not potentiated in the control (FIG. 44). It was considered from this that a component potentiating the PGAM-Chk1 interaction was included in the culture supernatant from the senescent cells. Lactate was considered to be a candidate for such a component, and human fibroblasts were treated with lactate. […] GPR81 signaling is known to be partially involved in oncogenic modules including the Ras pathway (Ohno et al., 2018). In senescent cells or lactate-treated cells, it was observed that RSK1 kinase, which is downstream of the Ras pathway, was activated, accompanied by phosphorylation of Ser280 of Chk1 (Li et al., 2012), which is a known target of RSK (FIG. 49).

[3] = human fibroblasts treated with lactate

CN(C)C1CCN(C(=O)c2ccc(NC(=O)Nc3ccc(-c4nc(N5CCOCC5)nc(N5CCOCC5)n4)cc3)cc2)CC1 [PF-05212384]
senolytic activity (young cell viability/senescent cell viability) (IMR90 cells [1]): have senolytic activity

O=C(O)c1ccc2c(c1)nc(Nc1cccc(Cl)c1)c1ccncc12 [CX-4945]
senolytic activity (young cell viability/senescent cell viability) (IMR90 cells [1]): have senolytic activity

CC[C@H](C)C(=O)O[C@H]1CCC=C2C=C[C@H](C)[C@H](CC[C@@H]3C[C@@H](O)CC(=O)O3)[C@H]21 [Mevastatin]
senolytic activity (young cell viability/senescent cell viability) (IMR90 cells [1]): have senolytic activity

Cc1ccc(-n2nc(C(C)(C)C)cc2NC(=O)Nc2ccc(OCCN3CCOCC3)c3ccccc23)cc1 [Doramapimod (BIRB 796), Doramapimod]
senolytic activity (young cell viability/senescent cell viability) (IMR90 cells [1]): have senolytic activity

CC(/C=C/C(=O)NO)=C\[C@@H](C)C(=O)c1ccc(N(C)C)cc1 [Trichostatin A (TSA), Trichostatin A]
senolytic activity (young cell viability/senescent cell viability) (IMR90 cells [1]): have senolytic activity

CC(C)c1cc(-c2ccc(F)c3ccccc23)nc(N)n1 [RS-127445]
senolytic activity (young cell viability/senescent cell viability) (IMR90 cells [1]): have senolytic activity

CC(C)CCN1c2nc(Nc3cc(F)c(O)c(F)c3)ncc2N(C)C(=O)C1C (stereo not drawn) [BI-D1870]
PGAM-Chk1 kinase binding (PGAM-Chk1 kinase binding): inhibited | glycolytic metabolism (PGAM-Chk1 kinase binding): decreased | senolytic effect (cell death) (IMR90 cells [2]; young and senescent IMR90 cells, 96 hours, 10 μM or 20 μM): remarkable senolytic effect | HIF-2α protein (HIF-2α; young and senescent cells, different concentrations for 96 hours): decreased

Cc1ccc(C(=O)Nc2cccc(C(F)(F)F)c2)cc1Nc1nc(-c2cccnc2)nc2c1cnn2C [NVP-BHG712]
senolytic activity (young cell viability/senescent cell viability) (IMR90 cells [1]): have senolytic activity

Verteporfin
senolytic activity (young cell viability/senescent cell viability) (IMR90 cells [1]): have senolytic activity

Cc1ccc2nc(NCCN)c3ncc(C)n3c2c1 [BMS-345541]
senolytic activity (young cell viability/senescent cell viability) (IMR90 cells [1]): have senolytic activity

CC(C)c1ccccc1Cc1cc(C(=O)Nc2ccc(S(=O)(=O)c3ccccc3C(C)(C)C)cc2)c(O)c(O)c1O [TW-37]
senolytic activity (young cell viability/senescent cell viability) (IMR90 cells [1]): have senolytic activity

COc1ccc(-c2ccc3c(N4CCOCC4)nc(N4C[C@@H](C)O[C@@H](C)C4)nc3n2)cc1CO [KU-0063794]
senolytic activity (young cell viability/senescent cell viability) (IMR90 cells [1]): have senolytic activity

CCOc1cc2ncc(C#N)c(Nc3ccc(OCc4ccccn4)c(Cl)c3)c2cc1NC(=O)/C=C/CN(C)C [Neratinib]
senolytic activity (young cell viability/senescent cell viability) (IMR90 cells [1]): have senolytic activity

CC(C)[C@H](NC(=O)c1ccc2ccccc2n1)C(=O)N[C@@H](CC(=O)O)C(=O)COc1c(F)cccc1F [QVD-Oph]
viability of senescent cells under nutlin 3b treatment (IMR90 cells [2]; senescent cells, nutlin 3b plus apoptosis inhibitor): restored

C[S+]([O-])c1ccc(-c2nc(-c3ccncc3)c(-c3ccc(F)cc3)[nH]2)cc1 (stereo not drawn) [SB203580]
senolytic activity (young cell viability/senescent cell viability) (IMR90 cells [1]): have senolytic activity

CC(O)C(=O)O (stereo not drawn) [lactate]
SASP expression (human fibroblasts; [3]): stimulated | accumulation of HIF-2α (human fibroblasts; [3]): observed in a lactate concentration-dependent manner | enhancement of PGAM-Chk1 interaction (human fibroblasts; [3]): observed in a lactate concentration-dependent manner | p21 level vs control (human fibroblasts; [3]): did not provide a difference | phosphorylation of Ser12 of HIF-2α (human fibroblasts; [3]): observed in a lactate concentration-dependent manner | RSK1 kinase activation (accompanied by phosphorylation of Ser280 of Chk1) (human fibroblasts; lactate-treated cells): activated

COc1ccc(-c2ccc3c(N4CCOC[C@@H]4C)nc(N4CCOC[C@@H]4C)nc3n2)cc1CO [AZD8055]
senolytic activity (young cell viability/senescent cell viability) (IMR90 cells [1]): have senolytic activity

COC(=O)c1ccc2c(c1)NC(=O)/C2=C(\Nc1ccc(N(C)C(=O)CN2CCN(C)CC2)cc1)c1ccccc1 [Vargatef]
senolytic activity (young cell viability/senescent cell viability) (IMR90 cells [1]): have senolytic activity

CC(C)C[C@@H](C=O)NC(=O)[C@H](CC(C)C)NC(=O)[C@H](CC(C)C)NC(=O)OCc1ccccc1 [MG132] (Cbz-Leu-Leu-Leu-aldehyde)
HIF-2α protein level under nutlin 3b treatment (HIF-2α; senescent (OIS) IMR90 cells treated with nutlin 3b plus proteasome inhibitor): remarkably restored
